Six molecules from publication PMC5041077, “Metabolic profile and safety of piperlongumine” (Scientific Reports, 2016) can be followed below.

The target of one series is CYP2C9 (Homo sapiens, UniProt P11712). As to the kind of experiment: in vitro.
The subject of series [1] is human liver microsomes. As to the kind of experiment: Time course of metabolite formation. Format: in vitro ADME. The note with it: PPL at S50, 2 mg/mL HLM. Here is the method:
The formation of metabolites was investigated through the application of three distinct mass spectrometry instruments. The incubation time was set at 50 min and 2 mg/mL of microsomal protein was employed in these experiments. The increase in the incubation time and microsomal protein aimed to produce a higher amount of metabolites. The concentration of PPL was 283.6 μM. After metabolism reaction, in order to favor a higher recovery of metabolites from microsomal medium liquid-liquid extraction was performed using 1 mL of ethyl acetate as the extractor solvent. The samples (n = 10) were shaken for 10 min at 1500 rpm using an orbital agitator and centrifuged for 5 min at 2860 × g. After that, 750 μL of supernatant was collected, and each one was pooled from ten single reactions. Next, the samples were evaporated to dryness by using a gentle stream of compressed air. To facilitate the identification of compounds that have hydroxyl groups, after sample preparation and before GC-MS analysis, silylation reactions were performed in the extracted samples. The residues were reconstituted in 50 μL of pyridine and 200 μL of BSTFA solution containing 2% TMCS. Following, the samples were slightly agitated and then incubated in a water bath at 75 °C for 120 min. […]
The incubation time was evaluated in different times (5, 10, 20, 40 and 50 min) in order to investigate the formation of metabolites. […]

Series [2] relates to recombinant human CYP (rhCYP) isoforms. The series is described as follows: P450 reaction phenotyping by rhCYP isoforms. Format: in vitro ADME. Particulars: 50 min incubation. The protocol: The capacity of selected major human P450 isoforms to metabolize PPL was screened using human recombinant isoenzymes. Briefly, PPL (S50 concentration) was added into a 200 μL incubation mixture containing P450 isoform (50 pmol/mL for CYP3A4, CYP1A2, CYP2C9, 2B6, 2D6 and 2C19; 25 pmol/mL for CYP2C8 and […]; final concentrations), NADPH regeneration system solution A (1.3 mM NADP^+ and 3.3 mM glucose-6-phosphate), NADPH regeneration system solution B (0.4 U/mL glucose-6-phosphate dehydrogenase), potassium phosphate buffer pH 7.4 (100 mM), except for CYP2C9 where the phosphate buffer was substituted by tris buffer pH 7.5 (100 mM), maintaining for 50 min in shaking water bath. In order to enhance the sensibility one sample was pooled from 4 single reactions. PPL metabolites were analyzed by a GC-MS as described previously. The MS peak areas of PPL metabolites were recorded to determine the contributions of the P450 enzymes.
(§1) Phenotyping study at 50 min. In order to evaluate the CYP isoforms involved in M4 formation, a similar study as described in the main text was performed, except by the time of incubation of 50 min (Fig. S13).

For a further series, the system named is CYP3A4. The series is described as follows: P450 reaction phenotyping by selective human enzyme inhibitors. Format: in vitro ADME. Particulars: human, human liver microsomes, probe PPL (formation of metabolite M2). The protocol:
(§2) This study was performed by evaluating the PPL metabolism and the produced metabolites in the presence of these specific inhibitors. […] The incubation protocol was the same for all inhibitors, except for orphenadrine, which was pre-incubated with all incubation constituents at 37 °C for 15 min before the reaction was initiated by the addition of substrate. The concentration of PPL used in this study corresponded to its S50/2. […] In order to enhance the sensibility one sample was pooled from 4 single reactions. Sample preparations and GC-MS analysis were performed according to assay previous described. The results were expressed as % of remain activity and compared with control sample lacking the inhibitors.
as §1
In general terms: Microsomes from liver hold many membrane-bound enzymes, among them those of drug oxidation.

Series [3] concerns human liver microsomes. The series is described as above. In kind it is in vitro ADME. The note with it: PPL at S50/2, 10 min incubation. Here is the method: as §2, §1
A further series concerns epoxide hydrolase. As to the kind of experiment: Epoxide hydrolase involvement on M2 catalysis (valproic acid). Format: in vitro ADME, human. The note with it: valproic acid 550 μM, PPL 63.8 µM, 50 min, 2 mg/mL HLM, with NADPH. Here is the method:
Epoxide hydrolase involvement on M2 catalysis. To evaluate the epoxide hydrolase involvement on M2 catalysis (Fig. S14), PPL (63.8 µM) was incubated alone or in the presence of valproic acid (550 μM), an epoxide hydrolase inhibitor. The incubation was carried out for 50 minutes at 37°C with 2 mg/mL HLM. Sample preparations and chromatographic analysis were performed according to assay described in phenotyping study session. The results were expressed as % of remain activity and compared with control sample with the absence of the inhibitor.

Sequence of CYP2C9 (P11712 whole entry): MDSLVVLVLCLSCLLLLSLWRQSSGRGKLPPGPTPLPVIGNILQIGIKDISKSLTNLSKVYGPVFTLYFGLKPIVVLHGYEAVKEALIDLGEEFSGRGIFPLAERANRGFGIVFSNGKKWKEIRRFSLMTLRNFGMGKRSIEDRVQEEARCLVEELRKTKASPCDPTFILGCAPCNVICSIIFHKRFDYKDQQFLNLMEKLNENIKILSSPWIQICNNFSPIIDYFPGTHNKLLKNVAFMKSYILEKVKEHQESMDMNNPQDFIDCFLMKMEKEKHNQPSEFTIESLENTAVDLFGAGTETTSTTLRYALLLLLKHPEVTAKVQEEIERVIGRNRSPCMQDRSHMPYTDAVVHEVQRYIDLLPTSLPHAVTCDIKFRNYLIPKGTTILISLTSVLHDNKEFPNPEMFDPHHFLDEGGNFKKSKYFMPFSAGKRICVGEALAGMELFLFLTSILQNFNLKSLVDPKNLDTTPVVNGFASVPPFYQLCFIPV

In general, Km refers to the concentration of substrate that gives half-maximal velocity. In the case of `O=C(O)Cc1ccccc1Nc1c(Cl)cccc1Cl` [Diclofenac, diclofenac], the Km on CYP2C9 was 47 µM. Take `COc1cc(/C=C/C(=O)N2CCC3OC3C2=O)cc(OC)c1OC` (centres unmarked) [M2]: in the series with human liver microsomes [1], the “incubation time of maximum production of the metabolite” value worked out at 20 min.

On to `COc1cc(/C=C/C(=O)N2CCC(O)C(O)C2=O)cc(OC)c1OC` (centres unmarked) [M4], for which, in the series on human liver microsomes [1], the “incubation time after which the metabolite starts to be produced (lag-time)” value is reported as greater than 40 min. Also, the “recombinant isoforms that contributed to M4 formation” value in series [2] is “CYP2C19, CYP2D6, CYP2E1, CYP2B6 and CYP2C8”. Usually inhibition stands for the relative decrease from the control value, in per cent. As to `CC(=O)N1CCN(c2ccc(OCC3COC(Cn4ccnc4)(c4ccc(Cl)cc4Cl)O3)cc2)CC1` (centres unmarked) [ketoconazole], in the series with CYP3A4, the inhibition at 10 min, 2 µM was determined as 83%. The “inhibitory effect on the formation of metabolite M3” value in the series with human liver microsomes [3] (ketoconazole 2 μM) was “significant inhibitory effect”. On to `CCCC(CCC)C(=O)O` [valproic acid], for which the “amount of metabolite M4 produced in presence of valproic acid” value with epoxide hydrolase is “same amount produced”. With `O=c1cc(-c2ccccc2)oc2c1ccc1ccccc12` [α-naphthoflavone], in the series on human liver microsomes [3] (α-naphthoflavone (CYP1A2 inhibitor) 1 μM), the “inhibition of the formation of metabolite M1” value was “strong inhibition”.
